pEC50: −log10 of the molar value. Like-named read-outs stand apart in the source and are kept apart here.
Experiments:
[1] = system: recombinant NL4-3 virus (nef section replaced with Renilla luciferase gene) in MT-2 cells; experiment: HIV cell culture assay (antiviral activity, luciferase readout); assay type: cell-based; conditions: Renilla, NL43, MT-2 cells infected for 4-5 days with recombinant NL4-3 Renilla luciferase virus
Procedure, shortened: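 Compound activity was measured as reduction of luciferase in MT-2 cells infected for 4-5 days with serially diluted compound present. EC50 values were calculated with the median effect equation.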

[2] = Compound cytotoxicity, XTT-based colorimetric assay; assay type: cell-based; conditions: human
Procedure, shortened: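 Follows the antiviral assay procedure, but with uninfected MT2 cells. On day 4, cell viability is measured by XTT-based colorimetry, giving CC50 values.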

[3] = uninfected MT2 cells, day 4, XTT, read-out: CC50

For `Cc1cc(C2CCC(F)(F)CC2)nc2nc([C@H](Cc3cc(F)cc(F)c3)NC(=O)Cn3nc(C4CC4)c4c3C[C@@H]3C[C@H]43)n(-c3ccc(Cl)c4c(NS(C)(=O)=O)nn(CC(=O)NCCOC(C)C)c34)c(=O)c12` (atropisomer, axis not shown; (P)) [Example 393, N-[(1S)-1-[(3P)-3-[4-chloro-3-methanesulfonamido-1-({[2-(propan-2-yloxy)ethyl]carbamoyl}methyl)-1H-indazol-7-yl]-7-(4,4-difluorocyclohexyl)-5-methyl-4-oxo-3H,4H-pyrido[2,3-d]pyrimidin-2-yl]-2-(3,5-difluorophenyl)ethyl]-2-[(2S,4S)-9-cyclopropyl-7,8-diazatricyclo[4.3.0.0^2,^4]nona-1(6),8-dien-7-yl]acetamide], the pEC50 [1] was 10.46 and the CC50 at 4 days [2, 3] was > 20000 pM.

For `CS(=O)(=O)Nc1nn(CCN2CCOC(C(F)F)C2)c2c(-n3c([C@H](Cc4cc(F)cc(F)c4)NC(=O)Cn4nc(C(F)F)c5c4C(F)(F)[C@@H]4C[C@H]54)nc4nc(C5CCC(F)(F)CC5)ccc4c3=O)ccc(Cl)c12` (stereo partly drawn) [Example 187, N-[(1S)-1-[(3P)-3-(4-chloro-1-{2-[2-(difluoromethyl)morpholin-4-yl]ethyl}-3-methanesulfonamido-1H-indazol-7-yl)-7-(4,4-difluorocyclohexyl)-4-oxo-3H,4H-pyrido[2,3-d]pyrimidin-2-yl]-2-(3,5-difluorophenyl)ethyl]-2-[(2S,4R)-9-(difluoromethyl)-5,5-difluoro-7,8-diazatricyclo[4.3.0.0^2,4]nona-1(6),8-dien-7-yl]acetamide], the pEC50 [1] was 10.49 and the CC50 at 4 days [2, 3] was > 50000 pM.

For `Cc1cc(C2CCC(F)(F)CC2)nc2nc([C@H](Cc3cc(F)cc(F)c3)NC(=O)Cn3nc(C(F)(F)F)c4c3C(F)(F)[C@@H]3C[C@H]43)n(-c3ccc(Cl)c4c(NS(C)(=O)=O)nn(CCCN5CCOCC5)c34)c(=O)c12` (atropisomer, axis not shown; (P)) [Example 121, N-[(1S)-1-[(3P)-3-{4-chloro-3-methanesulfonamido-1-[3-(morpholin-4-yl)propyl]-1H-indazol-7-yl}-7-(4,4-difluorocyclohexyl)-5-methyl-4-oxo-3H,4H-pyrido[2,3-d]pyrimidin-2-yl]-2-(3,5-difluorophenyl)ethyl]-2-[(2S,4R)-5,5-difluoro-9-(trifluoromethyl)-7,8-diazatricyclo[4.3.0.0^2,^4]nona-1(6),8-dien-7-yl]acetamide], the pEC50 [1] was 10.57 and the CC50 at 4 days [2, 3] was > 50000 pM.

For `Cc1cc(C2(F)CCC(F)(F)CC2)nc2nc([C@H](Cc3cc(F)cc(F)c3)NC(=O)Cn3nc(C(F)(F)F)c4c3C(F)(F)[C@@H]3C[C@H]43)n(-c3ccc(Cl)c4c(NS(C)(=O)=O)nn(CCN5C[C@H](F)C[C@H](F)C5)c34)c(=O)c12` (atropisomer, axis not shown; (P)) [Example 569, N-[(1S)-1-[(3P)-3-(4-chloro-1-{2-[(3R,5S)-3,5-difluoropiperidin-1-yl]ethyl}-3-methanesulfonamido-1H-indazol-7-yl)-5-methyl-4-oxo-7-(1,4,4-trifluorocyclohexyl)-3H,4H-pyrido[2,3-d]pyrimidin-2-yl]-2-(3,5-difluorophenyl)ethyl]-2-[(2S,4R)-5,5-difluoro-9-(trifluoromethyl)-7,8-diazatricyclo[4.3.0.0^2,^4]nona-1(6),8-dien-7-yl]acetamide], the pEC50 [1] was 10.92 and the CC50 at 4 days [2, 3] was > 20000 pM.

With `COCCCn1nc(NS(C)(=O)=O)c2c(Cl)ccc(-n3c([C@H](Cc4cc(F)cc(F)c4)NC(=O)Cn4nc(C5CC5)c5c4C[C@@H]4C[C@H]54)nc4nc(C5(F)CCC(F)(F)CC5)cc(CN5C[C@@H](C)O[C@@H](C)C5)c4c3=O)c21` (atropisomer, axis not shown; (P)) [Example 602, N-[(1S)-1-[(3P)-3-[4-chloro-3-methanesulfonamido-1-(3-methoxypropyl)-1H-indazol-7-yl]-5-{[(2R,6S)-2,6-dimethylmorpholin-4-yl]methyl}-4-oxo-7-(1,4,4-trifluorocyclohexyl)-3H,4H-pyrido[2,3-d]pyrimidin-2-yl]-2-(3,5-difluorophenyl)ethyl]-2-[(2S,4S)-9-cyclopropyl-7,8-diazatricyclo[4.3.0.0^2,^4]nona-1(6),8-dien-7-yl]acetamide] the pEC50 [1] was 10.77 and the CC50 at 4 days [2, 3] was > 20000 pM.

In the case of `Cc1cc(C2(F)CCC(F)(F)CC2)nc2nc([C@H](Cc3cc(F)cc(F)c3)NC(=O)Cn3nc([C@H]4CC4(F)F)c4c3C[C@H]3C[C@@H]43)n(-c3ccc(Cl)c4c(NS(C)(=O)=O)nn(CCN5C[C@@H](C)O[C@@H](C)C5)c34)c(=O)c12` (atropisomer, axis not shown; (P)) [Example 598, N-[(1S)-1-[(3P)-3-(4-chloro-1-{2-[(2R,6S)-2,6-dimethylmorpholin-4-yl]ethyl}-3-methanesulfonamido-1H-indazol-7-yl)-5-methyl-4-oxo-7-(1,4,4-trifluorocyclohexyl)-3H,4H-pyrido[2,3-d]pyrimidin-2-yl]-2-(3,5-difluorophenyl)ethyl]-2-[(2R,4R)-9-[(1R)-2,2-difluorocyclopropyl]-7,8-diazatricyclo[4.3.0.0^2,^4]nona-1(6),8-dien-7-yl]acetamide], the pEC50 [1] was 11.05 and the CC50 at 4 days [2, 3] was > 20000 pM.

In the case of `Cc1cc(C2CCC(F)(F)CC2)nc2nc([C@H](Cc3cc(F)cc(F)c3)NC(=O)Cn3nc(C4CC4)c4c3C[C@@H]3C[C@H]43)n(-c3ccc(Cl)c4c(NS(C)(=O)=O)nn(CCN5CCOC(C)(C)C5)c34)c(=O)c12` (atropisomer, axis not shown; (P)) [Example 480, N-[(1S)-1-[(3P)-3-{4-chloro-1-[2-(2,2-dimethylmorpholin-4-yl)ethyl]-3-methanesulfonamido-1H-indazol-7-yl}-7-(4,4-difluorocyclohexyl)-5-methyl-4-oxo-3H,4H-pyrido[2,3-d]pyrimidin-2-yl]-2-(3,5-difluorophenyl)ethyl]-2-[(2S,4S)-9-cyclopropyl-7,8-diazatricyclo[4.3.0.0^2,^4]nona-1(6),8-dien-7-yl]acetamide], the pEC50 [1] was 11.30 and the CC50 at 4 days [2, 3] was > 20000 pM.

For `Cc1cc(C2CCC(F)(F)CC2)nc2nc([C@H](Cc3cc(F)cc(F)c3)NC(=O)Cn3nc(C4CC4)c4c3C[C@@H]3C[C@H]43)n(-c3ccc(Cl)c4c(NS(C)(=O)=O)nn(CCN5CCC(F)(F)C5)c34)c(=O)c12` (atropisomer, axis not shown; (P)) [Example 232, N-[(1S)-1-[(3P)-3-{4-chloro-1-[2-(3,3-difluoropyrrolidin-1-yl)ethyl]-3-methanesulfonamido-1H-indazol-7-yl}-7-(4,4-difluorocyclohexyl)-5-methyl-4-oxo-3H,4H-pyrido[2,3-d]pyrimidin-2-yl]-2-(3,5-difluorophenyl)ethyl]-2-[(2S,4S)-9-cyclopropyl-7,8-diazatricyclo[4.3.0.0^2,^4]nona-1(6),8-dien-7-yl]acetamide], the pEC50 [1] was 11.05 and the CC50 at 4 days [2, 3] was > 50000 pM.

In the case of `COCCCn1nc(NS(C)(=O)=O)c2c(Cl)ccc(-n3c([C@H](Cc4cc(F)cc(F)c4)NC(=O)Cn4nc(C(F)F)c5c4C(F)(F)[C@@H]4C[C@H]54)nc4nc(C5CCC(F)(F)CC5)cc(C)c4c3=O)c21` (atropisomer, axis not shown; (P)) [Example 90, N-[(1S)-1-[(3P)-3-[4-chloro-3-methanesulfonamido-1-(3-methoxypropyl)-1H-indazol-7-yl]-7-(4,4-difluorocyclohexyl)-5-methyl-4-oxo-3H,4H-pyrido[2,3-d]pyrimidin-2-yl]-2-(3,5-difluorophenyl)ethyl]-2-[(2S,4R)-9-(difluoromethyl)-5,5-difluoro-7,8-diazatricyclo[4.3.0.0^2,^4]nona-1(6),8-dien-7-yl]acetamide], the pEC50 [1] was 10.74 and the CC50 at 4 days [2, 3] was > 50000 pM.

In the case of `Cc1cc(C2(F)CCC(F)(F)CC2)nc2nc([C@H](Cc3cc(F)cc(F)c3)NC(=O)Cn3nc(C(F)F)c4c3C(F)(F)[C@@H]3C[C@H]43)n(-c3ccc(Cl)c4c(NS(C)(=O)=O)nn(C[C@@H](C)N5C[C@H](F)C[C@H](F)C5)c34)c(=O)c12` (atropisomer, axis not shown; (P)) [Example 697, N-[(1S)-1-[(3P)-3-{4-chloro-1-[(2R)-2-[(3R,5S)-3,5-difluoropiperidin-1-yl]propyl]-3-methanesulfonamido-1H-indazol-7-yl}-5-methyl-4-oxo-7-(1,4,4-trifluorocyclohexyl)-3H,4H-pyrido[2,3-d]pyrimidin-2-yl]-2-(3,5-difluorophenyl)ethyl]-2-[(2S,4R)-9-(difluoromethyl)-5,5-difluoro-7,8-diazatricyclo[4.3.0.0^2,^4]nona-1(6),8-dien-7-yl]acetamide], the pEC50 [1] was 11.05 and the CC50 at 4 days [2, 3] was > 20000 pM.

For `Cc1cc(C2(F)CCC(F)(F)CC2)nc2nc([C@H](Cc3cc(F)cc(F)c3)NC(=O)Cn3nc(C(F)F)c4c3C(F)(F)[C@@H]3C[C@H]43)n(-c3ccc(Cl)c4c(NS(C)(=O)=O)nn(CCN5CC6CC(C5)O6)c34)c(=O)c12` [Example 588, N-[(1S)-1-[(3P)-3-[4-chloro-3-methanesulfonamido-1-(2-{6-oxa-3-azabicyclo[3.1.1]heptan-3-yl}ethyl)-1H-indazol-7-yl]-5-methyl-4-oxo-7-(1,4,4-trifluorocyclohexyl)-3H,4H-pyrido[2,3-d]pyrimidin-2-yl]-2-(3,5-difluorophenyl)ethyl]-2-[(2S,4R)-9-(difluoromethyl)-5,5-difluoro-7,8-diazatricyclo[4.3.0.0^2,^4]nona-1(6),8-dien-7-yl]acetamide], the pEC50 [1] was 11.10 and the CC50 at 4 days [2] was > 20000 pM.
